Results on 22 molecules are retold here after PubChem BioAssay AID328 (DTP/NCI, 2004).

Values joined by “and” are separate entries in the source; they are usually repeats but may differ in a detail not shown here. Equal values may be shown once. Toxic doses and inconclusive results are not listed.

For this assay, the system named is BDF1 mice, P388 leukemia ip, median survival T/C. In words: NCI In Vivo Anticancer Drug Screen. Data for tumor model P388 Leukemia (intraperitoneal) in B6D2F1 (BDF1) mice. The note with it: endpoint: median survival time, higher = longer survival. The procedure, abridged: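 Each value expresses how treatment altered survival: treated-mouse outcome over vehicle-mouse outcome, both groups bearing the transplanted tumour.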

[1] abbreviates: dose: 100.0 mg/kg/injection, schedule: Q01DX009 (ip), vehicle: saline with Tween-80.
[2] abbreviates: dose: 100.0 mg/kg/injection, schedule: Q04DX003 (ip), vehicle: saline with Tween-80.
The mark [3] stands for this setting: dose: 200.0 mg/kg/injection, schedule: Q01DX009 (ip), vehicle: saline with Tween-80.
Setting [4] is: dose: 200.0 mg/kg/injection, schedule: Q04DX003 (ip), vehicle: saline with Tween-80.
[5] abbreviates: dose: 400.0 mg/kg/injection, schedule: Q04DX003 (ip), vehicle: saline with Tween-80.
The mark [6] stands for this setting: dose: 6.25 mg/kg/injection, schedule: Q01DX009 (ip), vehicle: Klucel (hydroxypropylcellulose) (HPC).
The mark [7] stands for this setting: dose: 12.5 mg/kg/injection, schedule: Q01DX009 (ip), vehicle: Klucel (hydroxypropylcellulose) (HPC).
Setting [8] is: dose: 100.0 mg/kg/injection, schedule: Q04DX003 (ip), vehicle: Klucel (hydroxypropylcellulose) (HPC).
[9] abbreviates: dose: 200.0 mg/kg/injection, schedule: Q04DX003 (ip), vehicle: Klucel (hydroxypropylcellulose) (HPC).
Setting [10] is: dose: 25.0 mg/kg/injection, schedule: Q01DX009 (ip), vehicle: saline with Tween-80.
[11] abbreviates: dose: 50.0 mg/kg/injection, schedule: Q01DX009 (ip), vehicle: saline with Tween-80.
Where [12] appears, read: dose: 50.0 mg/kg/injection, schedule: Q01DX009 (ip), vehicle: saline.
Setting [13] is: dose: 100.0 mg/kg/injection, schedule: Q04DX003 (ip), vehicle: saline.
Where [14] appears, read: dose: 400.0 mg/kg/injection, schedule: Q04DX003 (ip), vehicle: saline.

Turning to `Oc1ccc(C=Nc2ccccc2N=Cc2ccc(O)c(O)c2)cc1O`, the T/C is 109 % of control under setting [1]; 110 % of control under setting [2]; 109 % of control under setting [3]; 105 % of control under setting [4]; 104 % of control (dose: 400.0 mg/kg/injection, schedule: Q01DX009 (ip), vehicle: saline with Tween-80); 110 % of control under setting [5].

Consider `CCN(CC)CCCC(C)Nc1cc(C)nc2cc(N(C)C)ccc12` (stereo not drawn), for which the T/C reads like this: under setting [6], 117 % of control; under setting [7], 108 % of control.

With `CCOC(OC(C)=O)OC(C)=O`, the T/C was 100 % of control (dose: 50.0 mg/kg/injection, schedule: Q01DX001 (ip), vehicle: saline); 115 % of control (dose: 100.0 mg/kg/injection, schedule: Q01DX001 (ip), vehicle: saline); 110 % of control (dose: 200.0 mg/kg/injection, schedule: Q01DX001 (ip), vehicle: saline).

Consider `CCCNC(=O)Nc1ccc(C(=O)OCC(C)C)cc1`, for which the T/C runs as follows: under setting [2], 104 % of control; under setting [4], 100 % of control; under setting [5], 100 % of control.

Take `CCCNC(=O)Nc1cc(C(F)(F)F)ccc1Cl`: the T/C was 100 % of control under setting [2], 100 % of control under setting [4] and 100 % of control under setting [5].

With `Nc1ccc2c(c1)Cc1cc(Br)ccc1-2`, the T/C under setting [8] is 104 % of control; the T/C under setting [9] was 100 % of control; the T/C (dose: 400.0 mg/kg/injection, schedule: Q04DX003 (ip), vehicle: Klucel (hydroxypropylcellulose) (HPC)) is 100 % of control.

Turning to `CCOC(=O)CCN(CCCN(C)C)c1cc(O)c2c(c1O)C(=O)c1ccccc1C2=O`, the T/C (dose: 50.0 mg/kg/injection, schedule: Q01DX005 (ip), vehicle: saline with Tween-80) is 89 % of control; the T/C (dose: 100.0 mg/kg/injection, schedule: Q01DX005 (ip), vehicle: saline with Tween-80) was 103 % of control; the T/C (dose: 200.0 mg/kg/injection, schedule: Q01DX005 (ip), vehicle: saline with Tween-80) was 108 % of control.

`O=Cc1cn[nH]c1-c1ccccc1`: the T/C is 92 % of control (dose: 100.0 mg/kg/injection, schedule: Q01DX009 (ip), vehicle: Klucel (hydroxypropylcellulose) (HPC)); 87 % of control under setting [8]; 88 % of control (dose: 200.0 mg/kg/injection, schedule: Q01DX009 (ip), vehicle: Klucel (hydroxypropylcellulose) (HPC)); 87 % of control under setting [9].

As to `c1ccc2c(c1)ccc1c2c[n+](CCCCCCCC[n+]2cc3c4ccccc4ccc3c3ccccc32)c2ccccc12`, the T/C (dose: 1.56 mg/kg/injection, schedule: Q01DX009 (ip), vehicle: other) is 165 % of control; the T/C (dose: 6.25 mg/kg/injection, schedule: Q01DX009 (ip), vehicle: other) was 98 % of control; the T/C (dose: 12.5 mg/kg/injection, schedule: Q01DX009 (ip), vehicle: other) was 106 % of control; the T/C (dose: 25.0 mg/kg/injection, schedule: Q01DX009 (ip), vehicle: other) is 95 % of control.

As to `O=C(O)C1OC(n2cc([N+](=O)[O-])c(=O)[nH]c2=O)C(O)C1O` (stereo not drawn), the T/C was 95 % of control under setting [10], 96 % of control under setting [11] and 93 % of control under setting [1].

For `CN(C)CC(Cl)CCl` (stereo not drawn), the T/C was 103 % of control and 118 % of control under setting [12]; 178 % of control (dose: 178.0 mg/kg/injection, schedule: Q01DX009 (ip), vehicle: saline); 118 % of control and 168 % of control and 209 % of control (dose: 200.0 mg/kg/injection, schedule: Q01DX009 (ip), vehicle: saline); 190 % of control (dose: 266.0 mg/kg/injection, schedule: Q01DX009 (ip), vehicle: saline); 226 % of control and 200 % of control (dose: 400.0 mg/kg/injection, schedule: Q01DX009 (ip), vehicle: saline).

As for `O=[N+]([O-])c1ccccc1C(c1ccc2ccccc2c1O)N1CCOCC1` (stereo not drawn), the T/C is 100 % of control (dose: 33.0 mg/kg/injection, schedule: Q01DX001 (ip), vehicle: saline with Tween-80); 163 % of control (dose: 50.0 mg/kg/injection, schedule: Q01DX001 (ip), vehicle: saline sonified); 100 % of control (dose: 50.0 mg/kg/injection, schedule: Q01DX001 (ip), vehicle: saline with Tween-80); 100 % of control (dose: 75.0 mg/kg/injection, schedule: Q01DX001 (ip), vehicle: saline with Tween-80); 109 % of control (dose: 100.0 mg/kg/injection, schedule: Q01DX001 (ip), vehicle: saline sonified); 95 % of control (dose: 200.0 mg/kg/injection, schedule: Q01DX001 (ip), vehicle: saline sonified).

With `CCCCCCCN1C=CCC(S(=O)(=O)N2CCOCC2)=C1`, the T/C is, setting by setting: under setting [11], 109 % of control; under setting [1], 99 % of control; under setting [3], 109 % of control.

Regarding `ClC1OCCOC1Cl` (stereo not drawn), the T/C reads like this: (dose: 25.0 mg/kg/injection, schedule: Q01DX009 (ip), vehicle: saline) 96 % of control; under setting [12], 100 % of control; (dose: 50.0 mg/kg/injection, schedule: Q04DX003 (ip), vehicle: saline) 105 % of control; under setting [13], 110 % of control.

For the molecule `C=C=[CH][Sn]([c]1ccccc1)([c]1ccccc1)[c]1ccccc1`, the T/C is 92 % of control and 108 % of control under setting [6]; 96 % of control and 104 % of control under setting [7]; 107 % of control and 112 % of control and 115 % of control (dose: 25.0 mg/kg/injection, schedule: Q01DX009 (ip), vehicle: Klucel (hydroxypropylcellulose) (HPC)).

Consider `C=C(CCC(C(=O)O)C1CCC2(C)C3=C(CCC12C)C1(C)CCC(O)C(C)(C)C1CC3)C(C)C` (stereo not drawn), for which the T/C is 100 % of control (dose: 12.5 mg/kg/injection, schedule: Q01DX009 (sc), vehicle: steriod suspending solution); 99 % of control (dose: 25.0 mg/kg/injection, schedule: Q01DX009 (sc), vehicle: steriod suspending solution); 87 % of control (dose: 50.0 mg/kg/injection, schedule: Q01DX009 (ip), vehicle: steriod suspending solution); 98 % of control (dose: 50.0 mg/kg/injection, schedule: Q01DX009 (sc), vehicle: steriod suspending solution); 92 % of control (dose: 100.0 mg/kg/injection, schedule: Q01DX009 (ip), vehicle: steriod suspending solution); 101 % of control and 106 % of control (dose: 100.0 mg/kg/injection, schedule: Q01DX009 (sc), vehicle: steriod suspending solution). Moreover, for the setting “dose: 200.0 mg/kg/injection, schedule: Q01DX009 (sc), vehicle: steriod suspending solution”, the T/C is 91 % of control.

Regarding `CC(=O)C(C(=O)Nc1ccccc1)c1cc(NS(=O)(=O)c2ccccc2)ccc1O` (stereo not drawn), the T/C runs as follows: (dose: 100.0 mg/kg/injection, schedule: Q01DX001 (ip), vehicle: saline with Tween-80) 90 % of control; (dose: 200.0 mg/kg/injection, schedule: Q01DX001 (ip), vehicle: saline with Tween-80) 95 % of control; (dose: 400.0 mg/kg/injection, schedule: Q01DX001 (ip), vehicle: saline with Tween-80) 86 % of control.

Consider `N#CCCCCNC(=O)C1CCC(=O)N1` (stereo not drawn), for which the T/C is 111 % of control under setting [13] and 111 % of control under setting [14].

For the molecule `CN=C(c1ccc(NC(=O)c2ccc(C(=O)Nc3ccc(C(=NC)N(C)C)cc3)cc2)cc1)N(C)C`, the T/C was 110 % of control (dose: 2.0 mg/kg/injection, schedule: Q01DX010 (ip), vehicle: water) and 115 % of control (dose: 4.0 mg/kg/injection, schedule: Q01DX010 (ip), vehicle: water).

Take `CC1COCC(C)N1` (stereo not drawn): the T/C is 106 % of control under setting [13]; 111 % of control (dose: 200.0 mg/kg/injection, schedule: Q04DX003 (ip), vehicle: saline); 106 % of control under setting [14].

For the molecule `CCN(CC)CC(O)CNC(=O)c1c2nc3c(C(=O)NCC(O)CN(CC)CC)ccc(C)c3oc-2c(C)c(=O)c1N` (stereo not drawn), the T/C reads like this: (dose: 50.0 mg/kg/injection, schedule: Q04DX002 (ip), vehicle: saline with Tween-80) 110 % of control; (dose: 100.0 mg/kg/injection, schedule: Q04DX002 (ip), vehicle: saline with Tween-80) 106 % of control and 120 % of control.

Regarding `COc1cccc(/C=N/NC(=O)C[n+]2ccccc2)c1OC`, the T/C is, setting by setting: (dose: 12.5 mg/kg/injection, schedule: Q01DX009 (ip), vehicle: saline with Tween-80) 104 % of control; under setting [10], 100 % of control; under setting [11], 104 % of control; (dose: 50.0 mg/kg/injection, schedule: Q04DX003 (ip), vehicle: saline with Tween-80) 100 % of control.
